Measurements from PubChem BioAssay AID2060494 (Molecular Pharmacology Branch, DTP, NCI, 2025).
pIC50: −log10 of the molar value.

Test system: 435261-313-R-J1-PDC complex spheroid viability
Assay: Anticancer human tumor 435261-313-R-J1-PDC patient-derived colon adenocarcinoma cell line growth inhibition [GQUAD]
Conditions: for pIC50: curve of first compound; for viability, T/C: stronger effect = lower value
Outline: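 Viability of tumor cells grown as complex spheroids with endothelial and stromal cells, exposed to drug combinations. Top concentration at or near clinical Cmax (else 10 microM), diluted in half-log increments.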

[1] = second compound 0.0316 µM, first compound 0.0316 µM
[2] = second compound 0.0316 µM, first compound 0.1 µM
[3] = second compound 0.0316 µM, first compound 0.316 µM
[4] = second compound 0.0316 µM, first compound 1 µM
[5] = second compound 0.0316 µM, first compound 3.16 µM
[6] = second compound 0.0316 µM, first compound 10 µM
[7] = second compound 0.1 µM, first compound 0.0316 µM
[8] = second compound 0.1 µM, first compound 0.1 µM
[9] = second compound 0.1 µM, first compound 0.316 µM
[10] = second compound 0.1 µM, first compound 1 µM
[11] = second compound 0.1 µM, first compound 3.16 µM
[12] = second compound 0.1 µM, first compound 10 µM
[13] = second compound 0.316 µM, first compound 0.0316 µM
[14] = second compound 0.316 µM, first compound 0.1 µM
[15] = second compound 0.316 µM, first compound 0.316 µM
[16] = second compound 0.316 µM, first compound 1 µM
[17] = second compound 0.316 µM, first compound 3.16 µM
[18] = second compound 0.316 µM, first compound 10 µM
[19] = second compound 1 µM, first compound 0.0316 µM
[20] = second compound 1 µM, first compound 0.1 µM
[21] = second compound 1 µM, first compound 0.316 µM
[22] = second compound 1 µM, first compound 1 µM
[23] = second compound 1 µM, first compound 3.16 µM
[24] = second compound 1 µM, first compound 10 µM
[25] = second compound 3.16 µM, first compound 0.0316 µM
[26] = second compound 3.16 µM, first compound 0.1 µM
[27] = second compound 3.16 µM, first compound 0.316 µM
[28] = second compound 3.16 µM, first compound 1 µM
[29] = second compound 3.16 µM, first compound 3.16 µM
[30] = second compound 3.16 µM, first compound 10 µM
[31] = second compound 10 µM, first compound 0.0316 µM
[32] = second compound 10 µM, first compound 0.1 µM
[33] = second compound 10 µM, first compound 0.316 µM
[34] = second compound 10 µM, first compound 1 µM
[35] = second compound 10 µM, first compound 3.16 µM
[36] = second compound 10 µM, first compound 10 µM
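Also: spheroids exposed to the agents for seven days before readout.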
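For viability, T/C in this document: percent of vehicle control viability with DMSO wells as 100%.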

COc1cccc2c1C(=O)c1c(O)c3c(c(O)c1C2=O)CC(O)(C(=O)CO)CC3OC1CC(N)C(O)C(C)O1 (stereo not drawn) + CN(C)c1ccc(Nc2c3ccc(NC(=O)CCN4CCCC4)cc3nc3cc(NC(=O)CCN4CCCC4)ccc23)cc1
pIC50 (second compound 0.0316 µM): 6.31 | pIC50 (second compound 0.1 µM): 6.19 | pIC50 (second compound 0.316 µM): 6.24 | pIC50 (second compound 1 µM): 6.36 | pIC50 (second compound 3.16 µM): 6.82 | pIC50 (second compound 10 µM): > 7.50 | viability, T/C [1]: 83.2% | viability, T/C [2]: 71.2% | viability, T/C [3]: 65.4% | viability, T/C [4]: 26.9% | viability, T/C [5]: 2.29% | viability, T/C [6]: 5.25% | viability, T/C [7]: 73.4% | viability, T/C [8]: 87% | viability, T/C [9]: 78.7% | viability, T/C [10]: 32.1% | viability, T/C [11]: 3.52% | viability, T/C [12]: 4.61% | viability, T/C [13]: 76.3% | viability, T/C [14]: 79.1% | viability, T/C [15]: 70.5% | viability, T/C [16]: 31.5% | viability, T/C [17]: 2.47% | viability, T/C [18]: 2.91% | viability, T/C [19]: 83% | viability, T/C [20]: 69.8% | viability, T/C [21]: 58.7% | viability, T/C [22]: 31.9% | viability, T/C [23]: 1.79% | viability, T/C [24]: 3.08% | viability, T/C [25]: 46.8% | viability, T/C [26]: 62.5% | viability, T/C [27]: 42% | viability, T/C [28]: 16.4% | viability, T/C [29]: 1.33% | viability, T/C [30]: 3.49% | viability, T/C [31]: 37.7% | viability, T/C [32]: 28% | viability, T/C [33]: 17.7% | viability, T/C [34]: 12% | viability, T/C [35]: 2.28% | viability, T/C [36]: 3.53%

CC1COCCN1c1cc(C2(S(C)(=N)=O)CC2)nc(-c2ccnc3[nH]ccc23)n1 (stereo not drawn) + CN(C)c1ccc(Nc2c3ccc(NC(=O)CCN4CCCC4)cc3nc3cc(NC(=O)CCN4CCCC4)ccc23)cc1
pIC50 (second compound 0.0316 µM): < 5.00 | pIC50 (second compound 0.1 µM): < 5.00 | pIC50 (second compound 0.316 µM): < 5.00 | pIC50 (second compound 1 µM): < 5.00 | pIC50 (second compound 3.16 µM): < 5.00 | pIC50 (second compound 10 µM): 7.05 | viability, T/C [1]: 153% | viability, T/C [2]: 99.2% | viability, T/C [3]: 71.8% | viability, T/C [4]: 98% | viability, T/C [5]: 69.2% | viability, T/C [6]: 70.7% | viability, T/C [7]: 88.2% | viability, T/C [8]: 96.2% | viability, T/C [9]: 106% | viability, T/C [10]: 79.1% | viability, T/C [11]: 76.7% | viability, T/C [12]: 51.8% | viability, T/C [13]: 89.4% | viability, T/C [14]: 101% | viability, T/C [15]: 89.8% | viability, T/C [16]: 68.6% | viability, T/C [17]: 64.6% | viability, T/C [18]: 53.7% | viability, T/C [19]: 109% | viability, T/C [20]: 115% | viability, T/C [21]: 87.6% | viability, T/C [22]: 81.4% | viability, T/C [23]: 79% | viability, T/C [24]: 51.2% | viability, T/C [25]: 61.1% | viability, T/C [26]: 55.8% | viability, T/C [27]: 68.3% | viability, T/C [28]: 76.2% | viability, T/C [29]: 50.6% | viability, T/C [30]: 45.3% | viability, T/C [31]: 55.3% | viability, T/C [32]: 50.3% | viability, T/C [33]: 32.9% | viability, T/C [34]: 23.8% | viability, T/C [35]: 22.6% | viability, T/C [36]: 17%

O=C(NO)c1cnc(N2CCN(S(=O)(=O)c3ccc4ccccc4c3)CC2)nc1 + Cc1[nH]c2ccc(F)cc2c1-c1nc2c3cccnc3c3ncccc3c2[nH]1
pIC50 (second compound 0.0316 µM): 6.37 | pIC50 (second compound 0.1 µM): 6.30 | pIC50 (second compound 0.316 µM): 6.22 | pIC50 (second compound 1 µM): 6.27 | pIC50 (second compound 3.16 µM): > 7.50 | pIC50 (second compound 10 µM): > 7.50 | viability, T/C [1]: 72.4% | viability, T/C [2]: 66.6% | viability, T/C [3]: 52.3% | viability, T/C [4]: 37.3% | viability, T/C [5]: 0.25% | viability, T/C [6]: 0.68% | viability, T/C [7]: 72.8% | viability, T/C [8]: 79.5% | viability, T/C [9]: 62% | viability, T/C [10]: 30.2% | viability, T/C [11]: 0.15% | viability, T/C [12]: 0.1% | viability, T/C [13]: 60.8% | viability, T/C [14]: 75.7% | viability, T/C [15]: 65.5% | viability, T/C [16]: 36.8% | viability, T/C [17]: 0.27% | viability, T/C [18]: 0.1% | viability, T/C [19]: 71% | viability, T/C [20]: 65.6% | viability, T/C [21]: 57.6% | viability, T/C [22]: 38.4% | viability, T/C [23]: 0.35% | viability, T/C [24]: 0.13% | viability, T/C [25]: 42.5% | viability, T/C [26]: 25.7% | viability, T/C [27]: 27% | viability, T/C [28]: 30.6% | viability, T/C [29]: 0.41% | viability, T/C [30]: 0.14% | viability, T/C [31]: 29.7% | viability, T/C [32]: 28.4% | viability, T/C [33]: 20.8% | viability, T/C [34]: 12.5% | viability, T/C [35]: 0.86% | viability, T/C [36]: 0.16%

COc1cccc2c1C(=O)c1c(O)c3c(c(O)c1C2=O)CC(O)(C(=O)CO)CC3OC1CC(N)C(O)C(C)O1 (stereo not drawn) + Cc1cnc(CNC(=O)c2c(=O)c3ccc(N4CCCN(C)CC4)nc3n3c2sc2ccccc23)cn1
pIC50 (second compound 0.0316 µM): 6.77 | pIC50 (second compound 0.1 µM): 6.86 | pIC50 (second compound 0.316 µM): > 7.50 | pIC50 (second compound 1 µM): > 7.50 | pIC50 (second compound 3.16 µM): > 7.50 | pIC50 (second compound 10 µM): > 7.50 | viability, T/C [1]: 66.9% | viability, T/C [2]: 48.1% | viability, T/C [3]: 46.4% | viability, T/C [4]: 26% | viability, T/C [5]: 1.47% | viability, T/C [6]: 2.7% | viability, T/C [7]: 64.9% | viability, T/C [8]: 53.1% | viability, T/C [9]: 37.9% | viability, T/C [10]: 21.9% | viability, T/C [11]: 1.96% | viability, T/C [12]: 2.36% | viability, T/C [13]: 48.4% | viability, T/C [14]: 50.5% | viability, T/C [15]: 44.8% | viability, T/C [16]: 11.5% | viability, T/C [17]: 0.48% | viability, T/C [18]: 1.34% | viability, T/C [19]: 28.8% | viability, T/C [20]: 35.5% | viability, T/C [21]: 26% | viability, T/C [22]: 0.13% | viability, T/C [23]: 0.11% | viability, T/C [24]: 0.36% | viability, T/C [25]: 15.4% | viability, T/C [26]: 19.2% | viability, T/C [27]: 3.74% | viability, T/C [28]: 0.1% | viability, T/C [29]: 0.13% | viability, T/C [30]: 0.2% | viability, T/C [31]: 0.13% | viability, T/C [32]: 0.19% | viability, T/C [33]: 0.2% | viability, T/C [34]: 0.16% | viability, T/C [35]: 0.19% | viability, T/C [36]: 0.19%
